Where a SMILES comes first, the peptide text is derived from it. Bridges are numbered along the chain shown (N, C = ends).
Key:
[1] = Telemetric evaluation of portal vein pressure in rats with bile duct ligation (Example 9); assay type: in vivo, Sprague Dawley rats; conditions: BDL rats n = 4, 41 μg/kg intravenous bolus
Description: For this study, animals (Sprague Dawley rats (240-300 g at surgery from Charles River Laboratory) were maintained at room temperatures (20 to 22° C.) with 14-hour light, 10-hour dark cycle when not performing study procedures. The mean portal vein pressure (MPVP) reduction efficacy of a peptide of Formula ([…] [SEQ ID NO. 13]; Mpa and C are disulfide bonded; represented as TA-1) was compared to terlipressin in telemetered male with Bile Duct Ligation (BDL) and Sham surgery. On Study Day 1, rats received bile duct ligation surgery and telemetry implantation. The BDL group (n=4) had two stands of silk suture tightened and tied to occlude the bile duct; the sham group (n=3) had sutures loosely tied around the bile duct so that no occlusion occurred. After recovery from surgery, all rats had their portal vein pressure monitored continuously via telemetry until Day 22. […] Terlipressin was administered through intravenous bolus into a lateral tail vein on Day 20 and 21. All animals were dosed under manual restraint. Systolic portal vein pressure and diastolic portal vein pressure were measured to calculate the Mean Portal Vein Pressure ([…] was analyzed by averaging 5 minute intervals for the first 4 hours after dose and thereafter averaging 1 hour intervals after dose until 24 hours. […] Telemetric evaluation of […] [SEQ ID NO. 13] and Terlipressin on portal vein pressure in rats with bile duct ligation. The animal room temperatures were set to maintain 20 to 22° C. A 14-hour light, 10-hour dark cycle was implemented unless interrupted by study procedures. Efficacy was assessed by evaluating mean portal vein pressure (MPVP) at different concentrations of Formula 1 and Terlipressin in telemetered male Sprague Dawley rats (240-300 g at surgery from Charles River Laboratory) with Bile Duct Ligation (BDL) and Sham surgery. On Study Day 1, rats received bile duct ligation surgery and telemetry implantation. The BDL group (n=4) had two stands of silk suture tightened and tied to occlude the bile duct; the sham group (n=3) had sutures loosely tied around the bile duct so that no occlusion occurred. After recovery from surgery, all rats had their portal vein pressure monitored continuously via telemetry until Day 22. […] Formula 1 was administered at different concentrations subcutaneously on Day 15 to 19, and Day 23; Terlipressin was administered through intravenous bolus into a lateral tail vein on Day 20 and 21. All animals were dosed under manual restraint. Systolic portal vein pressure and diastolic portal vein pressure were measured to calculate the Mean Portal Vein Pressure ([…] was analyzed by averaging 5 minute intervals for the first 4 hours after dose and thereafter averaging 1 hour intervals after dose until 24 hours.

[2] = Acute diuretic activity of Terlipressin, Tolvaptan and combinations in Wistar rats (Example 5); assay type: in vivo
Description: The animals were then treated with Terlipressin (Bachem, Torrance CA), Tolvaptan (Fisher Scientific, Waltham, MA) and combination of the two compounds at various concentrations administered subcutaneously (n=4). Test articles were Terlipressin 0.05 mg/Kg and 0.15 mg/Kg, Tolvaptan 0.3 mg/Kg, and 1.0 mg/Kg, Terlipressin 0.05 mg/Kg+Tolvaptan 0.3 mg/Kg, Terlipressin 0.05 mg/Kg+Tolvaptan 1.0 mg/Kg, Terlipressin 0.15 mg/Kg+Tolvaptan 0.3 mg/Kg, and Terlipressin 0.15 mg/Kg+1.0 mg/Kg. Furosemide (Fisher Scientific, Waltham, MA) was used as positive control and dosed at 20 mg/kg via oral gavage. Control dosed vehicle group (9% tween 80; Fisher Scientific, Waltham MA) administered subcutaneously was included and the resulting data was subtracted from individual test article data. After the dose, animals were placed in the metabolic cage (Tecniplast; Province of Varese, Italy) and urine was collected and measured at 2, 4 and 8 hours after the dosing of test articles. Urine volumes were divided by the body weight (pre-dose) times 100 to express in ml/100 g body weight.

V2 = V2 (Homo sapiens, UniProt P30518); conditions: cited from earlier work
Chain of V2 (P30518 whole entry): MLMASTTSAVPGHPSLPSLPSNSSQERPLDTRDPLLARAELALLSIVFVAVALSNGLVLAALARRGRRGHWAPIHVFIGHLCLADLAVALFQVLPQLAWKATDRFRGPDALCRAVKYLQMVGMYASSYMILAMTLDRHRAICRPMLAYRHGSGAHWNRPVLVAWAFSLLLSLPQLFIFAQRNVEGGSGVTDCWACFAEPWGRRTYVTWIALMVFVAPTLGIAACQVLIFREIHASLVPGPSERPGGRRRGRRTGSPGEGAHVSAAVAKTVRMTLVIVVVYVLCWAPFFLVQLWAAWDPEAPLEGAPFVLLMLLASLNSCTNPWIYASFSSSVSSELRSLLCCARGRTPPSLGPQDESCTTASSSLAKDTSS

[3] = Therapeutic index (NOAEL/NOEL): paleness, lethargy, ataxia observation in Sprague-Dawley rats (Example 7); assay type: in vivo
Outline: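 Male Sprague-Dawley rats, 8–10 weeks, under isoflurane (n=3 or 6), dosed IV or SC with test articles. Paleness judged by ear colour beside untreated controls; lethargy and ataxia scored by observation. Index expressed as NOAEL/NOEL ratio.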

[4] = Acute diuretic activity of Tolvaptan and peptides of Formula (II) and (IV) in Wistar rats (Example 6); assay type: in vivo
Description: In this study, Male Wistar Rats (˜8 weeks; Envigo; Somerset, NJ) were fasted overnight (18 hours; free access to water) followed by treatment with saline at 20 ml/Kg via oral gavage to have a uniform hydration of all the animals. The animals were then treated with various concentrations of test articles administered subcutaneously (n=4) (Table 5). Control dosed vehicle group (9% tween 80; Fisher Scientific, Waltham MA) administered subcutaneously was included and the resulting data was subtracted from individual test article data. After the dose, animals were placed in the metabolic cage (Tecniplast; Province of Varese, Italy) and urine was collected and measured at 2, 4 and 8 hours after the dosing of test articles. Urine volumes were divided by the body weight (pre-dose) times 100 to express in ml/100 g body weight. […] However, at any ratio, a tolvaptan dose of about 0.3 mg/Kg (i.e., 0.3+0.05 mg/Kg) administered in rats (allometrically equivalent to about 2-7 mg/human depending on persons weight) is an ideal dose that when combined with the composition of the present disclosure provides greater than 50% of the sum of individual diuretic effect administered alone. Low dose of 0.3 mg/Kg of subcutaneous tolvaptan is considered to be 13-fold below the effective safe human dose thus providing additional advantage to patients with liver disease. This can increase mean arterial blood pressure (MAP) which is a V1a effect caused by composition of the present disclosure while maintaining significant (at least 50% of the sum of individual diuretic effect administered alone) of both.

[5] = cited from earlier work
V1a receptor = target: T1, V1a receptor (Homo sapiens, UniProt P37288); assay: V1a Human Vasopressin GPCR Cell Based Agonist Calcium Flux Assay
T1 construct: host or cells: CHO cells
T1 sequence (P37288 whole entry): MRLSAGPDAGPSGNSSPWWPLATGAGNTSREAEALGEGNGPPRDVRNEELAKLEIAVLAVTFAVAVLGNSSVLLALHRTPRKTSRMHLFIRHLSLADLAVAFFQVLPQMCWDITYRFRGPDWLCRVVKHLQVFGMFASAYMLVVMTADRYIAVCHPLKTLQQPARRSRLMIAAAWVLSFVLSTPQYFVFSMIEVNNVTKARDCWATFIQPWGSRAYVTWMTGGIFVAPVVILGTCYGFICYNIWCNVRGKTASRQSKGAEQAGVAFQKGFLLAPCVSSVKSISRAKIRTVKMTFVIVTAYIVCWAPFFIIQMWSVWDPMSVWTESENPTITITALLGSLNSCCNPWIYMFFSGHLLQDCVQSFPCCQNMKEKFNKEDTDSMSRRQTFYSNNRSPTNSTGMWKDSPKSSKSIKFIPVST

[6] = peptide alone 0.015 mg/kg subcutaneous
[7] = peptide alone 0.05 mg/kg subcutaneous

NCCCC[C@H](NC(=O)[C@@H]1CCCN1C(=O)[C@@H]1CSSC[C@H](NC(=O)CNC(=O)CNC(=O)CN)C(=O)N[C@@H](Cc2ccc(O)cc2)C(=O)N[C@@H](Cc2ccccc2)C(=O)N[C@@H](CCC(N)=O)C(=O)N[C@@H](CC(N)=O)C(=O)N1)C(=O)NCC(N)=O [Terlipressin, reference compound] (H-GGGCYFQNCPKG-NH2; disulfide 4-9)
Percent decrease (%) in Mean Portal Vein Pressure (MPVP) from BDL baseline prior to treatment ([1]; Time 1 hr): −23%
Percent decrease (%) in Mean Portal Vein Pressure (MPVP) from BDL baseline prior to treatment ([1]; Time 4 hr): 11.3%
Percent decrease (%) in Mean Portal Vein Pressure (MPVP) from BDL baseline prior to treatment ([1]; Time 7 hr): 10.8%
Percent decrease (%) in Mean Portal Vein Pressure (MPVP) from BDL baseline prior to treatment ([1]; Time 20 hr): 7.3%
Average mL of Urine per 100 gram body weight 8 hours cumulative (n = 4) minus Vehicle group (Tween 80); (SEM) ([2]; Terlipressin 0.05 mg/Kg subcutaneous): 0.70 (0.17) mL per 100 gram body weight
Average mL of Urine per 100 gram body weight 8 hours cumulative (n = 4) minus Vehicle group (Tween 80); (SEM) ([2]; Terlipressin 0.15 mg/Kg subcutaneous): 1.32 (0.23) mL per 100 gram body weight
V2 or anti-diuretic activity (V2): 3%
Paleness (Duration, hrs; SD) ([3]; I.V., at the Marked adverse effect dose): (3.56 ± 0.06) hrs
Paleness (Duration, hrs; SD) ([3]; I.V., at the Mild adverse effect dose): (2.82 ± 0.03) hrs
Paleness (Duration, hrs; SD) ([3]; I.V., at the NOAEL dose): (1.3 ± 0.05) hrs
Paleness (Duration, hrs; SD) ([3]; I.V., at the NOEL dose): None observed
Highest dose with no-observed effect level or paleness (NOEL) ([3]; I.V., rat): 0.005 mg/kg
NOAEL at 24 h ([3]; male, Sprague-Dawley, in vivo, iv, I.V., rat, read-out: Highest dose with no-observed adverse effect level without lethargy (NOAEL)): 0.05 mg/kg
Marked adverse effect (Lowest dose first showed Ataxia) ([3]; rat, in vivo, iv): 1.5 mg/kg
Mild adverse effect (Lowest dose first showed Lethargy) ([3]; rat, in vivo, iv): 0.15 mg/kg

Cc1ccccc1C(=O)Nc1ccc(C(=O)N2CCCC(O)c3cc(Cl)ccc32)c(C)c1 (stereo not shown) [Tolvaptan]
Average 8 hours cumulative Urine Volume: mL per 100 gram body weight (SEM; n = 4) minus Tween 80 vehicle group ([4]; Tolvaptan 0.3 mg/kg subcutaneous): 0.65 (0.16) mL per 100 gram body weight
Average mL of Urine per 100 gram body weight 8 hours cumulative (n = 4) minus Vehicle group (Tween 80); (SEM) ([2]; Tolvaptan 0.3 mg/Kg subcutaneous): 0.65 (0.16) mL per 100 gram body weight
Average mL of Urine per 100 gram body weight 8 hours cumulative (n = 4) minus Vehicle group (Tween 80); (SEM) ([2]; Tolvaptan 1.0 mg/Kg subcutaneous): 7.29 (0.46) mL per 100 gram body weight

NS(=O)(=O)c1cc(C(=O)O)c(NCc2ccco2)cc1Cl [Furosemide]
Average mL of Urine per 100 gram body weight 8 hours cumulative (n = 4) minus Vehicle group (Tween 80); (SEM) ([2]; Furosemide 20 mg/kg oral gavage (positive control)): 1.73 (0.22) mL per 100 gram body weight

NCCCC[C@H](NC(=O)[C@@H]1CCCN1C(=O)[C@@H]1CSSCCC(=O)N[C@@H](Cc2ccc(O)cc2)C(=O)N[C@@H](Cc2ccccc2)C(=O)N[C@@H](CCC(N)=O)C(=O)N[C@@H](CC(N)=O)C(=O)N1)C(=O)NCC(N)=O [SEQ ID NO. 32]
Average 8 hours cumulative Urine Volume: mL per 100 gram body weight (SEM; n = 4) minus Tween 80 vehicle group ([4]; peptide alone 0.005 mg/kg subcutaneous): 0.80 (0.50) mL per 100 gram body weight
Average 8 hours cumulative Urine Volume: mL per 100 gram body weight (SEM; n = 4) minus Tween 80 vehicle group [4, 6]: 0.86 (0.28) mL per 100 gram body weight
Average 8 hours cumulative Urine Volume: mL per 100 gram body weight (SEM; n = 4) minus Tween 80 vehicle group [4, 7]: 0.74 (0.55) mL per 100 gram body weight
Paleness (Duration, hrs; SD) ([3]; S.C., at the Marked adverse effect dose): (4.79 ± 0.08) hrs
Paleness (Duration, hrs; SD) ([3]; S.C., at the Mild adverse effect dose): (4.45 ± 0.26) hrs
Paleness (Duration, hrs; SD) ([3]; S.C., at the NOAEL dose): (3.54 ± 0.11) hrs
Paleness (Duration, hrs; SD) ([3]; S.C., at the NOEL dose): None observed
Highest dose with no-observed effect level or paleness (NOEL) ([3]; S.C., rat): 0.0005 mg/kg
NOAEL/NOEL (therapeutic index) ([3]; S.C., rat): 20
NOAEL ([3]; in vivo, sc, S.C., rat, read-out: Highest dose with no-observed adverse effect level without lethargy (NOAEL)): 0.01 mg/kg
Marked adverse effect (Lowest dose first showed Ataxia) ([3]; rat, in vivo, sc): 0.1 mg/kg
Mild adverse effect (Lowest dose first showed Lethargy) ([3]; rat, in vivo, sc): 0.03 mg/kg

NC(=O)CC[C@@H]1NC(=O)[C@H](Cc2ccccc2)NC(=O)[C@H](Cc2ccc(O)cc2)NC(=O)[C@@H](N)CSSC[C@@H](C(=O)N2CCC[C@H]2C(=O)N[C@@H](CCCN=C(N)N)C(=O)NCC(N)=O)NC(=O)[C@H](CC(N)=O)NC1=O [Vasopressin]
excreted through the kidney ([5]; in vivo): 65%
metabolized by liver and kidney vasopressinases ([5]; in vivo): 35%
protein binding ([5]; in vivo): not protein-bound
volume of distribution ([5]; plasma): 0.14 L/kg

NCCCC[C@H](NC(=O)[C@@H]1CCCN1C(=O)[C@@H]1CSSC[C@H](N)C(=O)N[C@@H](Cc2ccc(O)cc2)C(=O)N[C@@H](Cc2ccccc2)C(=O)N[C@@H](CCC(N)=O)C(=O)N[C@@H](CC(N)=O)C(=O)N1)C(=O)NCC(N)=O [Lysine vasopressin (LVP), Lysine vasopressin, reference compound]
plasma half-life ([5]; in vivo): 0.833 h
EC50 (V1a receptor; Table 3, CHO cells expressing human V1 receptor, read-out: Estimated V1a EC50 (nM), n = 2): 1.65 nM
Emax (V1a receptor; Table 3, read-out: V1a Highest agonist effect (% of AVP), n = 2): 92.1%
V1a Highest agonist effect (% of AVP); n = 2 (V1a receptor; Table 4): 92.1 % of AVP

NC(=O)CC[C@@H]1NC(=O)[C@H](Cc2ccccc2)NC(=O)[C@H](Cc2ccc(O)cc2)NC(=O)CCSSC[C@@H](C(=O)N2CCC[C@H]2C(=O)N[C@H](CCCN=C(N)N)C(=O)NCC(N)=O)NC(=O)[C@H](CC(N)=O)NC1=O [desmopressin]
half-life ([5]; in vivo): 2 h

Mpa-Tyr-Phe-Gln-Asn-Cys-Pro-Lys(X)a-Gly-NH2; (X)a = (Gly)5 [SEQ ID NO. 33]
Average 8 hours cumulative Urine Volume: mL per 100 gram body weight (SEM; n = 4) minus Tween 80 vehicle group [4, 6]: 1.11 (0.11) mL per 100 gram body weight
Average 8 hours cumulative Urine Volume: mL per 100 gram body weight (SEM; n = 4) minus Tween 80 vehicle group [4, 7]: 1.32 (0.09) mL per 100 gram body weight
Average 8 hours cumulative Urine Volume: mL per 100 gram body weight (SEM; n = 4) minus Tween 80 vehicle group ([4]; peptide alone 0.15 mg/kg subcutaneous): 1.85 (0.20) mL per 100 gram body weight

— US12410211B2, “V1A receptor partial agonist and method of use” (PharmaIN Corporation, priority 2020, dated 2025)
